US12187716B2, “TYK2 kinase inhibitors” (SAREUM LIMITED, priority 2018, dated 2025)

Key:
[1] = Hepatocyte stability assay, dog; assay type: in vitro ADME; conditions: male, Beagle, pooled hepatocytes, 37° C.
Method: (§1) Test and control compounds were incubated with hepatocytes at 37° C. Aliquots were removed at 6 timepoints over a one hour period. Samples were centrifuged and the supernatant fractions analysed for parent compound by mass spectrometry (LC-MS/MS).
(§2) The amount of compound remaining (expressed as %) was determined from the MS response in each sample relative to that in the T=0 samples, and used to determine the half-life and intrinsic clearance of the compound.

[2] = Hepatocyte stability assay, human; assay type: in vitro ADME, human (mixed gender); conditions: both sexes, pooled hepatocytes, 37° C.
Method: as §1, §2

SMILES | hepatocyte CLint [1] | hepatocyte CLint [2] | half-life ([1]; read-out: Dog T1/2) | half-life ([2]; read-out: Human T1/2)
NC(=O)c1nc(-c2c(Cl)cccc2Cl)oc1Nc1ccc(C(=O)N2CCOCC2)cc1 [Comparative Compound B, 2-(2,6-dichloro-phenyl)-5-[4-(morpholine-4-carbonyl)-phenylamino]-oxazole-4-carboxylic acid amide, reference compound] | 29.8 µL/min/1e6 cells | 9 µL/min/1e6 cells | – | –
NC(=O)c1nc(-c2c(Cl)cccc2Cl)oc1Nc1ccc(C(=O)N2CCS(=O)(=O)CC2)c(F)c1 [Compound (3)] | 8.8 µL/min/1e6 cells | 4.2 µL/min/1e6 cells | 3.08 h | 5.58 h
